Non-standard residues stand in square brackets, D forms with d. Residues, ends and D or L forms follow the SMILES beside them. ξ: configuration not given here. *: point of attachment. ξL = CC(C)CC(N)C(=O)O; CH2Cl = ClC*
Key:
chymotrypsin = chymotrypsin (Bos taurus, UniProt P00766); conditions: inhibitor concentration 600 μg/mL; cited from earlier work
[1] = system: human poliomyelitis virus type 2 or human rhinovirus type 1A; assay type: cell-based; set-up: key to Protease-Inhibiting Activity of Selected Peptide Chloromethyl Ketones: Activity: -: no activity; +/-: low activity; +: active at 100 μg/mL; ++: active at 50 μg/mL; +++: active at 10 μg/mL; ++++: active at <5 μg/mL
[2] = system: human poliomyelitis virus type 2; assay type: cell-based; conditions: test concentration 100 μg/mL
human rhinovirus type 1A = assay type: cell-based; conditions: test concentration 100 μg/mL
subtilisin BPN' = molecular target: T1, subtilisin BPN' (Bacillus amyloliquefaciens, UniProt P00782); conditions: cited from earlier work
T1 sequence (P00782 108-382): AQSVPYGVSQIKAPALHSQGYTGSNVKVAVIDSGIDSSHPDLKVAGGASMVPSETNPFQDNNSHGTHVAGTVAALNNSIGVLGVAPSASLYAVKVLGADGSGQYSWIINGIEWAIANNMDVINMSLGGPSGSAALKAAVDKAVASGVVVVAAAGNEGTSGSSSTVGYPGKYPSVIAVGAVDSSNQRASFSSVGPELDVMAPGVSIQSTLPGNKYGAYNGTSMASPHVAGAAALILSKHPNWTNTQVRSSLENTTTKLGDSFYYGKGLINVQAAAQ

Poliovirus type 2 = assay type: cell-based
rhinovirus type 1A = assay type: cell-based

CC(=O)N[C@@H](CC(C)C)C(=O)N[C@@H](CC(C)C)C(=O)N[C@@H](Cc1ccccc1)C(C)=O [Ac-Leu-Leu-PheCH3]
inhibition of chymotrypsin (chymotrypsin): no inhibition was observed

CC(=O)[C@H](CC(C)C)NC(=O)[C@H](C)NC(=O)CNC(=O)[C@H](Cc1ccccc1)NC(=O)OC(C)(C)C [Boc-Phe-Gly-Ala-LeuCH3, reference compound]
activity in the viral cleavage assay [1]: failed to show activity

COC(=O)CCC(=O)N[C@@H](Cc1ccccc1)C(=O)NCC(=O)N[C@@H](C)C(=O)N[C@@H](CC(C)C)C(C)=O [MeOSuc-Phe-Gly-Ala-LeuCH3, MeOSuc--Phe--Gly--Ala--LeuCH3]
activity in the viral cleavage assay [2]: demonstrated activity | activity in the viral cleavage assay (human rhinovirus type 1A): demonstrated activity | Protease-Inhibiting Activity of Selected Peptide Chloromethyl Ketones: Activity [1]: +++ (key: -: no activity; +/-: low activity; +: active at 100 μg/mL; ++: active at 50 μg/mL; +++: active at 10 μg/mL; ++++: active at <5 μg/mL)

COC(=O)CCC(=O)N[C@@H](Cc1ccccc1)C(=O)NCC(=O)N[C@@H](CC(C)C)C(=O)N[C@@H](CC(C)C)C(C)=O [MeOSuc-Phe-Gly-Leu-LeuCH3]
Protease-Inhibiting Activity of Selected Peptide Chloromethyl Ketones: Activity [1]: +/-

CC(=O)N[C@@H](Cc1ccccc1)C(=O)NCC(=O)N[C@@H](C)C(=O)NC(CC(C)C)C(=O)CCl (stereo partly drawn) [Peptide Analog 3, acetyl-L-phenylalanyl-L-glycyl-L-alanyl-L-leucyl chloromethyl ketone] (Ac-FGA[ξL]-CH2Cl)
inhibition of subtilisin BPN' (rate, among the peptide chloromethyl ketones tested) (subtilisin BPN'): fastest inhibitor

CC(=O)[C@H](CC(C)C)NC(=O)[C@H](C)NC(=O)CNC(=O)[C@H](Cc1ccccc1)NC(=O)OCc1ccccc1 [Z-Phe-Gly-Ala-LeuCH3]
plaque reduction compared to control plates (Poliovirus type 2): > 90% | plaque reduction compared to control plates (rhinovirus type 1A): > 90% | Protease-Inhibiting Activity of Selected Peptide Chloromethyl Ketones: Activity [1]: +++ (key: -: no activity; +/-: low activity; +: active at 100 μg/mL; ++: active at 50 μg/mL; +++: active at 10 μg/mL; ++++: active at <5 μg/mL) | cytotoxicity (HeLa cells): No cytotoxicity was observed

CC(=O)[C@H](CC(C)C)NC(=O)[C@H](CC(C)C)NC(=O)CNC(=O)[C@H](Cc1ccccc1)NC(=O)OCc1ccccc1 [Z-Phe-Gly-Leu-LeuCH3, N-carbobenzoxy-L-phenylalanyl-L-glycyl-L-leucyl-L-leucyl methyl ketone]
Protease-Inhibiting Activity of Selected Peptide Chloromethyl Ketones: Activity [1]: +++ (key: -: no activity; +/-: low activity; +: active at 100 μg/mL; ++: active at 50 μg/mL; +++: active at 10 μg/mL; ++++: active at <5 μg/mL)
